{"source": "patent US20220267720A1", "about": "“FIBROSIS-SPECIFIC CELL CULTURE SUBSTRATE AND METHODS OF USE” (Xylyx Bio, Inc., priority 2019, published 2022)", "key": {"pulmonary fibroblasts [1]": {"tested_on": "pulmonary fibroblasts", "assay": "Gene expression of fibroblasts in IPF matrix scaffolds treated with antifibrotic agent", "assay_type": "cell-based, human"}, "pulmonary fibroblasts [2]": {"tested_on": "pulmonary fibroblasts", "assay": "Growth curves of pulmonary fibroblasts in IPF and normal lung matrix scaffolds exposed to antifibrotic agent", "assay_type": "cell-based, human"}, "[3]": {"tested_on": "Normal human pulmonary fibroblasts", "assay": "Proliferation and myofibroblast differentiation assay in fibrotic human lung ECM hydrogel", "assay_type": "cell-based", "method": "Normal human pulmonary fibroblasts were cultured in fibrotic human lung ECM hydrogel for up to 5 days and subjected to live cell imaging with CellTracker™ red, immunofluorescence imaging in multi-well plates, and a common cell-based proliferation assay. Cells were cultured in fibrotic lung ECM hydrogel for 2 days, then TGFβ1 (5 nM) was added to induce myofibroblast differentiation, along with 2.7 mM Pirfenidone (FDA-approved gold standard anti-fibrotic drug) or DMSO vehicle ([…]) control for […] prior to assay readouts on day 5. […] After 48 hours, 1standard immunofluorescence staining was performed in situ in 96-well plates. Fibroblasts expressed vimentin, αSMA, and proliferation marker Ki67 (white arrows, FIG. 21B)."}, "Normal HSC [4]": {"tested_on": "Normal HSC", "assay": "Cell-based proliferation assay of HSC in fibrotic human liver ECM hydrogel", "conditions": "TGFβ1 25 nM, Pirfenidone 2.7 mM, 3 days, readout day 5", "method": "(§1) Normal HSC were cultured in fibrotic human liver ECM hydrogel for up to 5 days. Cells were cultured in fibrotic liver ECM hydrogel for 2 days, then TGFβ1 (25 nM) was added to induce activation, along with 2.7 mM Pirfenidone (FDA-approved gold standard anti-fibrotic drug) or DMSO vehicle (1%) control for 3 days prior to assay readouts on day 5. Cell-based proliferation assay, immunofluorescence imaging in multi-well plates, and Elisa for ProCollagen1 were performed. […] Conclusions: We confirmed compatibility of normal & fibrotic liver ECM hydrogel with common analytical techniques & assays used in early-stage drug development including discovery, screening, target validation."}, "Normal HSC [5]": {"tested_on": "Normal HSC", "assay": "Ki67 immunofluorescence imaging of HSC in fibrotic human liver ECM hydrogel", "assay_type": "cell-based", "conditions": "for Ki67 positive cells after Pirfenidone treatment: 2.7 mM Pirfenidone; for proliferating Ki67+ cells (change): fibrotic liver ECM hydrogel, TGFβ1 25 nM, Pirfenidone 2.7 mM, readout day 5", "method": "as §1"}, "[6]": {"tested_on": "human hepatic stellate cells (HSC)", "assay": "IC50 response of hepatic stellate cells to Erlotinib, XTT assay", "assay_type": "cell-based", "conditions": "HSC on fibrotic or normal soluble ECM or plastic, 72 hours with drug", "method": "Methods: Primary human hepatocytes, HepG2 cells (human hepatocarcinoma cell type commonly used to model hepatocytes), and human hepatic stellate cells (HSC) were cultured for up to 7 days on normal or fibrotic human liver matrix scaffolds, Matrigel, collagen I hydrogels, and/or tissue culture plates (plastic) with or without collagen I coating.\nHSCs differentially expressed fibrosis-related genes ACTA2, COL1A1 LOXL2 and PDGFR2 in liver scaffolds versus tissue plastic and Coll coated plates (FIG. 11B). […] Although morphologic similarities were observed between HSC cultured in fibrotic and normal liver ECM scaffolds, morphology differed from HSC cultured on artificial substrates (FIG. 11C). […] To test whether HSC cultured on different ECM respond differently to drug treatment then cells grown in standard 2D we measured the IC50 response of HSC to Erlotinib, an inhibitor of the epidermal growth factor receptor (EGFR) tyrosine, used for the treatment for several cancers and currently is in clinical trials for the treatment of hepatocarcinomatous originating from cirrhotic livers (FIG. 11F). 5000 cells were plated on 96 wells on fibrotic or normal ECM soluble ECM and on plastic. 24 hours later Erlotinib or DMSO vehicle in different concentrations was added. Cells were grown with drugs for 72 hours (with media+drug replenished every day). Cell number were assed using a standard XTT assay."}, "[7]": {"assay": "Diffusivity of fluorescent trackers through liver ECM hydrogels", "assay_type": "physicochemical", "source_text": "Physiochemical characterizations of fibrotic and normal human liver matrix hydrogels."}, "[8]": {"conditions": "fibroblasts in IPF matrix scaffolds"}, "[9]": {"conditions": "fibrotic lung ECM scaffolds compared to tissue culture plastic"}}}
{"compound": "Cc1ccc(-c2ccc3c(ccc4sc5c(c43)NC[C@@H](C)NC5=O)n2)cn1", "note": "[PF3644022]", "values": [{"measurement": "expression of ACTA2", "setting": "pulmonary fibroblasts [1]; [8]", "value": "consistently reduced"}, {"measurement": "expression of COL1A1", "setting": "pulmonary fibroblasts [1]; [8]", "value": "consistently reduced"}, {"measurement": "expression of YAP1", "setting": "pulmonary fibroblasts [1]; [8]", "value": "No significant differences"}, {"measurement": "expression of genes associated with ECM production", "setting": "pulmonary fibroblasts [1]; [9]", "value": "downregulation"}, {"measurement": "growth of fibroblasts, sensitivity and drug response", "setting": "pulmonary fibroblasts [2]; fibroblasts in IPF matrix scaffolds versus normal lung matrix scaffolds", "value": "greater sensitivity and drug response"}, {"measurement": "growth of fibroblasts versus untreated cells", "setting": "pulmonary fibroblasts [2]; fibroblasts in normal lung matrix scaffolds, after 6 days", "value": "not significantly different from untreated cells"}, {"measurement": "sensitivity and drug response", "setting": "pulmonary fibroblasts [2]; [9]", "value": "greater sensitivity and drug response"}]}
{"compound": "Cc1ccc(=O)n(-c2ccccc2)c1", "note": "[Pirfenidone]", "values": [{"measurement": "proliferation of lung fibroblasts", "setting": "[3]; 2.7 mM Pirfenidone with TGFβ1 5 nM, readout day 5", "value": "decrease proliferation"}, {"measurement": "cell proliferation", "setting": "Normal HSC [4]", "value": "slowed cell proliferation"}, {"measurement": "Ki67 positive cells after Pirfenidone treatment", "setting": "Normal HSC [5]; HSC on liver ECM", "value": "~20", "unit": "%"}, {"measurement": "Ki67 positive cells after Pirfenidone treatment", "setting": "Normal HSC [5]; HSC on plastic", "value": "over 50%"}, {"measurement": "proliferating Ki67+ cells (change)", "setting": "Normal HSC [5]", "value": "significantly reduced"}]}
{"compound": "C#Cc1cccc(Nc2ncnc3cc(OCCOC)c(OCCOC)cc23)c1", "note": "[Erlotinib]", "values": [{"measurement": "IC50 response of HSC to Erlotinib", "setting": "[6]", "value": "lower for cells on normal ECM compared to fibrotic ECM and higher for plastic cultured cells"}]}
{"compound": "TGFβ: transforming growth factor beta, added to induce activation / myofibroblast differentiation", "values": [{"measurement": "αSMA", "setting": "[3]; TGFβ1 5 nM", "value": "increased"}, {"measurement": "cell proliferation", "setting": "Normal HSC [4]", "value": "accelerated cell proliferation"}, {"measurement": "proliferating Ki67+ cells (change)", "setting": "Normal HSC [5]", "value": "significantly changed"}]}
{"compound": "CC1=CC(C)(C)N(C)c2cc3[o+]c4cc5c(cc4c(-c4cc(NC(=O)c6ccc(CCl)cc6)ccc4C(=O)[O-])c3cc21)C(C)=CC(C)(C)N5C.CC1=CC(C)(C)N(C)c2cc3[o+]c4cc5c(cc4c(-c4ccc(NC(=O)c6ccc(CCl)cc6)cc4C(=O)[O-])c3cc21)C(C)=CC(C)(C)N5C", "note": "[CellTracker Red CMTPX]", "values": [{"measurement": "diffusion rate", "setting": "[7]", "value": "> 2", "unit": "mm h^−1"}]}
